Measurements reported in publication PMC6132577, “Methyl group reorientation under ligand binding probed by pseudocontact shifts” (Journal of Biomolecular Nmr, 2018).
Read-outs that look alike come from different tables or passages of the source.

Experiments:
[1] = target: T1, WT ntd-HSP90 (Homo sapiens, UniProt P07900); test: NMR titration (15N-labelled protein, amide groups) fitted with TITAN, 1:1 binding model; details: four amide protons, range of values from repeated global fits, 298 K, pH 7.7
T1 construct: made in house
Protocol: Ntd-HSP90 in 50 mM Tris-HCl and 50 mM NaCl buffer, pH 7.7, was titrated with 4-(2-Fluorophenyl)-2-pyrimidinamine, 1, (Fig. 1), a 189 Da known ligand of ntd-HSP90 that was kindly provided by AstraZeneca (Göteborg, Sweden). Titrations were performed with three ntd-HSP90 mutants, S50C/D54C, A101C/N105C and T149C/I187C tagged with Lu^3+-CLaNP-5 or Yb^3+-CLaNP-5. The concentrations of S50C/D54C, A101C/N105C T149C/I187C were 20, 103 and 65 µM, respectively, for both diamagnetic and paramagnetic forms of the protein. Concentrations (µM) of 1 for titrations with S50C/D54C, A101C/N105C and T149C/I187C were [0, 39, 59, 88, 132, 198, 296, 444, 667, 1000], [0, 20, 40, 121, 364, 1111] and [0, 40, 89, 200, 442, 665, 1008, 1897], respectively. […] Average CSP were calculated as (ΔH^2 + (ΔC/10)^2)^0.5 for methyl groups and (ΔH^2 + (ΔN/6)^2)^0.5 for amides. PCS were measured using ^1H and for calculations the geometrical average of the proton coordinates in methyl groups were used.
The dissociation constant KD, as well as the dissociation rate constant (kOFF) were calculated with TITAN software (Waudby et al. [2016]) using a 1:1 binding model (A + B ⇆ A − B). […] The WT KD was calculated using a titration performed on the ^15N labelled protein, on the basis of four amide protons (Table S1). […]

[2] = target: T2, ntd-HSP90 mutant A101C/N105C tagged with CLaNP-5 (Homo sapiens, UniProt P07900, A101C/N105C); test: NMR methyl 13C-1H HSQC titration fitted with TITAN, 1:1 binding model; details: mutant 101C/105C
T2 construct: Three double cysteine mutants of the ntd-HSP90 were designed on the surface of the protein; CLaNP-5 (chemical lanthanoid chelate with Lu3+ or Yb3+, attached to the two engineered Cys); made in house
Protocol: (§1) Three double cysteine mutants of the ntd-HSP90 were designed on the surface of the protein, S50C/D54C, A101C/N105C and T149C/I187C (Lescanne et al. [2017]). […] The protein was produced labelled with Leu-δ1-δ2/Val-γ1-γ2-[^13CH3] and purified and tagged with CLaNP5 according to a published protocol (Lescanne et al. [2017]). CLaNP-5 was synthesized as described before (Keizers et al. [2007], [2008]).
(§2) Ntd-HSP90 in 50 mM Tris-HCl and 50 mM NaCl buffer, pH 7.7, was titrated with 4-(2-Fluorophenyl)-2-pyrimidinamine, 1, (Fig. 1), a 189 Da known ligand of ntd-HSP90 that was kindly provided by AstraZeneca (Göteborg, Sweden). Titrations were performed with three ntd-HSP90 mutants, S50C/D54C, A101C/N105C and T149C/I187C tagged with Lu^3+-CLaNP-5 or Yb^3+-CLaNP-5. The concentrations of S50C/D54C, A101C/N105C T149C/I187C were 20, 103 and 65 µM, respectively, for both diamagnetic and paramagnetic forms of the protein. Concentrations (µM) of 1 for titrations with S50C/D54C, A101C/N105C and T149C/I187C were [0, 39, 59, 88, 132, 198, 296, 444, 667, 1000], [0, 20, 40, 121, 364, 1111] and [0, 40, 89, 200, 442, 665, 1008, 1897], respectively. The NMR sample volume was 595 µL for all samples, and dilution was neglected, because the biggest volume of ligand solution added was < 5 µL. ^13C-^1H HSQC (Palmer et al. [1991]; Kay et al. [1992]; Schleucher et al. [1994]) spectra were acquired at each titration point, on a Bruker Avance III 800 MHz spectrometer, equipped with a cryogenically cooled TXI-probe head, operating at 298 K. Spectra were processed with nmrpipe (Delaglio et al. [1995]) using the exponential EM apodization function for analysis with TITAN (Waudby et al. [2016]). A similar titration was performed with WT ntd-HSP90 observing the amide groups. Average CSP were calculated as (ΔH^2 + (ΔC/10)^2)^0.5 for methyl groups and (ΔH^2 + (ΔN/6)^2)^0.5 for amides. PCS were measured using ^1H and for calculations the geometrical average of the proton coordinates in methyl groups were used.
(§3) The dissociation constant KD, as well as the dissociation rate constant (kOFF) were calculated with TITAN software (Waudby et al. [2016]) using a 1:1 binding model (A + B ⇆ A − B). TITAN fits both the equilibrium constant (KD) and the dissociation rate constant (kOFF) on the basis of the CSP and line broadening. A global fit of the resonances of five methyl groups (Table S1) was performed and then one at the time was taken out and the fit repeated. The WT KD was calculated using a titration performed on the ^15N labelled protein, on the basis of four amide protons (Table S1). The ranges of values obtained in this way are reported in Table 1 and provide a more realistic error range than the fit error. […] For these two mutants, a 50 µM variation of the KD results in a change of the extrapolated CSP of 0.01 ppm at most, half the error used for the further calculations. For mutant 149C/187C a KD of 50 µM was used to extrapolate the CSP.

[3] = target: T3, ntd-HSP90 mutant T149C/I187C tagged with CLaNP-5 (Homo sapiens, UniProt P07900, I187C/T149C); test: as above; details: mutant 149C/187C
T3 construct: Three double cysteine mutants of the ntd-HSP90 were designed on the surface of the protein; CLaNP-5 (chemical lanthanoid chelate with Lu3+ or Yb3+, attached to the two engineered Cys); made in house
Protocol: as §1, §2, §3

[4] = target: T4, ntd-HSP90 mutant S50C/D54C tagged with CLaNP-5 (Homo sapiens, UniProt P07900, D54C/S50C); test: as above; details: mutant 50C/54C
T4 construct: Three double cysteine mutants of the ntd-HSP90 were designed on the surface of the protein; CLaNP-5 (chemical lanthanoid chelate with Lu3+ or Yb3+, attached to the two engineered Cys); made in house
Protocol: as §1, §2, §3

[5] = CLaNP-5 tagged, five methyl groups, range of values from repeated global fits, 298 K, pH 7.7
[6] = CLaNP-5 tagged, five methyl groups, range of values from repeated global fits, 298 K, pH 7.7, read-out: KD
[7] = single value used to extrapolate CSP, read-out: KD used for the calculation of the 100% bound state CSP

Nc1nccc(-c2ccccc2F)n1 [compound 1, 4-(2-Fluorophenyl)-2-pyrimidinamine]
Kd [1]: 160 to 220 µM
koff [1]: 1400 to 1800 s⁻¹
koff [2, 5]: 1080 to 1300 s⁻¹
Kd [2, 6]: 140 to 171 µM
Kd [2, 7]: 150 µM
koff [3, 5]: 1300 to 1900 s⁻¹
Kd [3, 6]: 41 to 45 µM
Kd ([3]; single value used to extrapolate CSP, read-out: KD used to extrapolate the CSP): 50 µM
koff [4, 5]: 1500 to 2300 s⁻¹
Kd [4, 6]: 195 to 238 µM
Kd [4, 7]: 200 µM
